How the values were obtained:
[1] = tested on: crabgrass; test: Test B pre/postemergence crabgrass; format: in vivo, Digitaria sanguinalis
Outline: (§1)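 Response is a visual 0-to-10 score relative to untreated plants, where 0 means no effect and 10 means complete control, taken twelve to sixteen days after application. Treatments went onto soil at planting and onto foliage of 1- to 4-leaf plants, using a surfactant-containing non-phytotoxic solvent.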

[2] = tested on: sugar beet; test: Test B pre/postemergence sugar beet; format: in vivo, Beta vulgaris
Outline: as §1

[3] = tested on: pigweed; test: Test B pre/postemergence pigweed; format: in vivo, Amaranthus retroflexus
Outline: as §1

[4] = tested on: cocklebur; test: Test B pre/postemergence cocklebur; format: in vivo, Xanthium strumarium
Outline: as §1

[5] = tested on: giant foxtail; test: Test B pre/postemergence giant foxtail; format: in vivo, Setaria faberii
Outline: as §1

[6] = tested on: surinam grass; test: Test B pre/postemergence surinam grass; format: in vivo, Brachiaria decumbens
Outline: as §1

[7] = tested on: bamyardgrass; test: Test B flood test barnyardgrass; format: in vivo, Echinochloa crus-galli
Outline: (§2)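 Plants were grown to the 2-leaf stage before treatment with test chemical, then held in a greenhouse for twelve to sixteen days. Injury was visually rated against untreated controls on a 0–10 scale, where 0 is no effect and 10 is complete control.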

[8] = tested on: smallflower flatsedge; test: Test B flood test smallflower flatsedge; format: in vivo, Cyperus difformis
Outline: as §2

[9] = tested on: blackgrass; test: Test B pre/postemergence blackgrass; format: in vivo, Alopecurus myosuroides
Outline: as §1

[10] = tested on: rice; test: Test B flood test rice; format: in vivo, Oryza sativa
Outline: as §2

[11] = tested on: corn; test: Test B pre/postemergence corn; format: in vivo, Zea mays
Outline: as §1

[12] = tested on: duck salad; test: Test B flood test duck salad; format: in vivo, Heteranthera limosa
Outline: as §2

[13] = tested on: rape; test: Test B pre/postemergence rape; format: in vivo, Brassica napus
Outline: as §1

[14] = tested on: purple nutsedge; test: Test B pre/postemergence purple nutsedge; format: in vivo, Cyperus rotundus; settings: Postemergence
Outline: as §1

[15] = tested on: wheat; test: Test B pre/postemergence wheat; format: in vivo, Triticum aestivum
Outline: as §1

[16] = tested on: soybean; test: Test B pre/postemergence soybean; format: in vivo, Glycine max
Outline: as §1

[17] = Preemergence, Rate 62 g/ha, scale of 0 to 10 where 0 is no effect and 10 is complete control
[18] = Preemergence, Rate 250 g/ha, scale of 0 to 10 where 0 is no effect and 10 is complete control
[19] = Preemergence, Rate 500 g/ha, scale of 0 to 10 where 0 is no effect and 10 is complete control
[20] = Rate 62 g/ha, Postemergence, scale of 0 to 10 where 0 is no effect and 10 is complete control
[21] = Rate 125 g/ha, Postemergence, scale 0 to 10
[22] = Rate 125 g/ha, Preemergence, scale of 0 to 10 where 0 is no effect and 10 is complete control
[23] = Rate 500 g/ha, Postemergence, scale 0 to 10, 0 no effect, 10 complete control
[24] = Rate 62 g/ha, headed Pre-emergence (flood test species), scale 0 to 10 (0 no effect, 10 complete control)
[25] = Rate 125 g/ha, Pre-emergence, flood test species, scale 0 to 10 where 0 is no effect and 10 is complete control
[26] = Rate 250 g/ha, Pre-emergence, flood-test species, scale 0 to 10, 0 is no effect, 10 is complete control
[27] = Rate 500 g/ha, Pre-emergence, flood test species, scale 0 to 10 (0 no effect, 10 complete control)

CC(C)N(C(=O)n1oc(=O)n(-c2cccnc2)c1=O)c1ccccc1 [Compound 235]
0: Crabgrass plant response rating [1, 17] | Crabgrass plant response rating [1, 18] | Plant response rating, Crabgrass [1, 19] | Crabgrass plant response rating [1, 20] | Crabgrass plant response rating [1, 21] | Crabgrass plant response rating [1, 22] | Plant response rating (0 to 10; 0 is no effect, 10 is complete control), Crabgrass ([1]; Rate 250 g/ha, Postemergence) | Crabgrass plant response rating [1, 23] | Sugarbeets plant response rating [2, 17] | Sugarbeets plant response rating [2, 18] | Plant response rating, Sugarbeets [2, 19] | Sugarbeets plant response rating [2, 20] | Sugarbeets plant response rating [2, 21] | Sugarbeets plant response rating [2, 22] | Plant response rating (0 to 10; 0 is no effect, 10 is complete control), Sugarbeets ([2]; Rate 250 g/ha, Postemergence) | Sugarbeets plant response rating [2, 23] | Redroot pigweed plant response rating [3, 17] | Redroot pigweed plant response rating [3, 18] | Plant response rating, Redroot pigweed [3, 19] | Redroot pigweed plant response rating [3, 20] | Redroot pigweed plant response rating [3, 21] | Redroot pigweed plant response rating [3, 22] | Plant response rating (0 to 10; 0 is no effect, 10 is complete control), Redroot pigweed ([3]; Rate 250 g/ha, Postemergence) | Redroot pigweed plant response rating [3, 23] | Cocklebur plant response rating [4, 17] | Cocklebur plant response rating [4, 18] | Plant response rating, Cocklebur [4, 19] | Cocklebur plant response rating [4, 20] | Cocklebur plant response rating [4, 21] | Cocklebur plant response rating [4, 22] | Plant response rating (0 to 10; 0 is no effect, 10 is complete control), Cocklebur ([4]; Rate 250 g/ha, Postemergence) | Cocklebur plant response rating [4, 23] | Giant foxtail plant response rating [5, 17] | Giant foxtail plant response rating [5, 18] | Plant response rating, Giant foxtail [5, 19] | Giant foxtail plant response rating [5, 20] | Giant foxtail plant response rating [5, 21] | Giant foxtail plant response rating [5, 22] | Plant response rating (0 to 10; 0 is no effect, 10 is complete control), Giant foxtail ([5]; Rate 250 g/ha, Postemergence) | Giant foxtail plant response rating [5, 23] | B. signalgrass plant response rating [6, 17] | B. signalgrass plant response rating ([6]; Preemergence, Rate 250 g/ha, scale 0 to 10, 0 is no effect, 10 is complete control) | Plant response rating, B. signalgrass [6, 19] | B. signalgrass plant response rating [6, 20] | B. signalgrass plant response rating ([6]; Rate 125 g/ha, Postemergence, scale 0 (no effect) to 10 (complete control)) | B. signalgrass plant response rating [6, 22] | Plant response rating (0 to 10; 0 is no effect, 10 is complete control), B. signalgrass ([6]; Rate 250 g/ha, Postemergence) | B. signalgrass plant response rating [6, 23] | Barnyardgrass plant response rating [7, 24] | Barnyardgrass plant response rating [7, 25] | Barnyardgrass plant response rating [7, 26] | Barnyardgrass plant response rating [7, 27] | S. Flatsedge plant response rating [8, 24] | S. Flatsedge plant response rating [8, 25] | S. Flatsedge plant response rating [8, 26] | S. Flatsedge plant response rating [8, 27] | Blackgrass plant response rating [9, 17] | Blackgrass plant response rating [9, 18] | Plant response rating, Blackgrass [9, 19] | Blackgrass plant response rating [9, 20] | Blackgrass plant response rating [9, 21] | Blackgrass plant response rating [9, 22] | Plant response rating (0 to 10; 0 is no effect, 10 is complete control), Blackgrass ([9]; Rate 250 g/ha, Postemergence) | Blackgrass plant response rating [9, 23] | Rice plant response rating [10, 24] | Rice plant response rating [10, 25] | Rice plant response rating [10, 26] | Rice plant response rating [10, 27] | Corn plant response rating [11, 17] | Corn plant response rating [11, 18] | Plant response rating, Corn [11, 19] | Corn plant response rating [11, 20] | Corn plant response rating [11, 21] | Corn plant response rating [11, 22] | Plant response rating (0 to 10; 0 is no effect, 10 is complete control), Corn ([11]; Rate 250 g/ha, Postemergence) | Corn plant response rating [11, 23] | Ducksalad plant response rating [12, 24] | Ducksalad plant response rating [12, 25] | Ducksalad plant response rating [12, 26] | Ducksalad plant response rating [12, 27] | Rape plant response rating [13, 17] | Rape plant response rating [13, 18] | Plant response rating, Rape [13, 19] | Rape plant response rating [13, 20] | Rape plant response rating [13, 21] | Rape plant response rating [13, 22] | Plant response rating (0 to 10; 0 is no effect, 10 is complete control), Rape ([13]; Rate 250 g/ha, Postemergence) | Rape plant response rating [13, 23] | Nutsedge plant response rating ([14]; Rate 62 g/ha, scale of 0 to 10 where 0 is no effect and 10 is complete control) | Nutsedge plant response rating ([14]; Rate 125 g/ha, scale 0 to 10) | Plant response rating (0 to 10; 0 is no effect, 10 is complete control), Nutsedge ([14]; Rate 250 g/ha) | Nutsedge plant response rating ([14]; Rate 500 g/ha, scale 0 to 10, 0 no effect, 10 complete control) | Wheat plant response rating [15, 17] | Wheat plant response rating [15, 18] | Plant response rating, Wheat [15, 19] | Wheat plant response rating [15, 20] | Wheat plant response rating [15, 21] | Wheat plant response rating [15, 22] | Plant response rating (0 to 10; 0 is no effect, 10 is complete control), Wheat ([15]; Rate 250 g/ha, Postemergence) | Wheat plant response rating [15, 23] | Soybean plant response rating [16, 17] | Soybean plant response rating [16, 18] | Plant response rating, Soybean [16, 19] | Soybean plant response rating [16, 20] | Soybean plant response rating [16, 21] | Soybean plant response rating [16, 22] | Plant response rating (0 to 10; 0 is no effect, 10 is complete control), Soybean ([16]; Rate 250 g/ha, Postemergence) | Soybean plant response rating [16, 23]

— patent US6737383B1, “Herbicidal oxadiazolidines” (priority 1999, dated 2004)
